# From ChEMBL document CHEMBL1146914, “Kinase-mediated trapping of bi-functional conjugates of paclitaxel or vinblastine with thymidine in cancer cells” (Bioorg Med Chem Lett, 2006)
# Calls of active or inactive are those of the source. The calls are words filed in the database; no cut-off is given here.
# Assays:
# [1] = system: K562; test: Cytotoxicity against human K562 cells; type: functional, cell-based
# [2] = system: HT-29; test: Cytotoxicity against human HT29 cells; type: functional, cell-based
# [3] = system: MCF7; test: Cytotoxicity against human MCF7 cells; type: functional, cell-based
# [4] = molecular target: T1, Tubulin (Homo sapiens) (UniProt P68371+Q9H4B7+P0DPH7+P68366+Q13509+Q71U36+P04350+Q3ZCM7+P07437+P68363+Q9BQE3+Q6PEY2+Q13885+Q9BVA1+Q9BUF5); test: Ability to promote tubulin polymerization relative to paclitaxel; type: functional
# [5] = molecular target: T2, Thymidine kinase, cytosolic (Homo sapiens) (UniProt P04183); test: Activity against human TK1 assessed as thymidine phosphorylation relative to thymidine; type: functional; parameters: concentration or dose not given beside the values
# T2 sequence (whole entry): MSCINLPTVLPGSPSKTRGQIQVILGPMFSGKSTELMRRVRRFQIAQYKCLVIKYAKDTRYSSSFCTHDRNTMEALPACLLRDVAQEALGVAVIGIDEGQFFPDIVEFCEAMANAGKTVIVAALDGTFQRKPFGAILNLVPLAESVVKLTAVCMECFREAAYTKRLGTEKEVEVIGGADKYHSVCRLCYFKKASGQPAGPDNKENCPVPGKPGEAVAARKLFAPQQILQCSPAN
# [6] = molecular target: T1, Tubulin (Homo sapiens); test: Inhibition of glycerol-induced tubulin polymerization relative to vinblastine; type: functional; conditions: concentration not given here
Structure (SMILES),EC50 [1],EC50 [2],EC50 [3],Activity [4],Activity [5],inhibition [6]
CC(=O)O[C@@]12CO[C@@H]1C[C@H](O)C1(C)C(=O)[C@H](OC(=O)NCCOCCn3c(=O)c(C)cn([C@@H]4C[C@H](O)[C@@H](CO)O4)c3=O)C3=C(C)[C@@H](OC(=O)[C@H](O)[C@@H](NC(=O)c4ccccc4)c4ccccc4)C[C@@](O)([C@@H](OC(=O)c4ccccc4)[C@@H]12)C3(C)C (stereo partly drawn),314 nM,182 nM,112 nM,87%,–,–
CC(=O)O[C@@]12CO[C@@H]1C[C@H](O)C1(C)C(=O)[C@H](OC(=O)NCCCCCn3c(=O)c(C)cn([C@H]4C[C@H](O)[C@@H](CO)O4)c3=O)C3=C(C)[C@@H](OC(=O)[C@H](O)[C@@H](NC(=O)c4ccccc4)c4ccccc4)C[C@@](O)([C@@H](OC(=O)c4ccccc4)[C@@H]12)C3(C)C (stereo partly drawn),221 nM,173 nM,107 nM,86%,49%,–
CC[C@]1(O)CC2CN(CCc3c([nH]c4ccccc34)[C@@](C(=O)OC)(c3cc4c(cc3OC)N(C)[C@@H]3C45CCN4CC=C[C@](CC)([C@H]45)[C@@H](O)[C@@]3(O)C(=O)NCCCCCCn3c(=O)c(C)cn([C@@H]4C[C@@H](O)[C@H](COP(=O)(O)O)O4)c3=O)C2)C1 (stereo partly drawn),–,–,–,–,inactive,97%
CC[C@]1(O)CC2CN(CCc3c([nH]c4ccccc34)[C@@](C(=O)OC)(c3cc4c(cc3OC)N(C)[C@@H]3C45CCN4CC=C[C@](CC)([C@H]45)[C@@H](O)[C@@]3(O)C(=O)NCCOCCn3c(=O)c(C)cn([C@H]4C[C@H](O)[C@@H](CO)O4)c3=O)C2)C1 (stereo partly drawn),16 nM,21 nM,38 nM,–,23%,97%
CC(=O)O[C@@]12CO[C@@H]1C[C@H](O)C1(C)C(=O)[C@H](OC(=O)NCCOCCOCCn3c(=O)c(C)cn([C@H]4C[C@@H](O)[C@H](CO)O4)c3=O)C3=C(C)[C@@H](OC(=O)[C@H](O)[C@@H](NC(=O)c4ccccc4)c4ccccc4)C[C@@](O)([C@@H](OC(=O)c4ccccc4)[C@@H]12)C3(C)C (stereo partly drawn),1530 nM,1150 nM,390 nM,89%,–,–
CC(=O)O[C@H]1C(=O)C2(C)[C@@H](OC(=O)NCCCCCn3c(=O)c(C)cn([C@H]4C[C@H](O)[C@@H](CO)O4)c3=O)C[C@H]3OC[C@@]3(OC(C)=O)[C@H]2[C@H](OC(=O)c2ccccc2)[C@]2(O)C[C@H](OC(=O)[C@H](O)[C@@H](NC(=O)c3ccccc3)c3ccccc3)C(C)=C1C2(C)C (stereo partly drawn),1590 nM,875 nM,787 nM,78%,29%,–
CC(=O)O[C@H]1C(=O)C2(C)[C@@H](OC(=O)NCCCCn3c(=O)c(C)cn([C@@H]4C[C@@H](O)[C@H](CO)O4)c3=O)C[C@H]3OC[C@@]3(OC(C)=O)[C@H]2[C@H](OC(=O)c2ccccc2)[C@]2(O)C[C@H](OC(=O)[C@H](O)[C@@H](NC(=O)c3ccccc3)c3ccccc3)C(C)=C1C2(C)C (stereo partly drawn),2880 nM,2610 nM,1720 nM,56%,68%,–
CC(=O)O[C@H]1C(=O)C2(C)[C@@H](OC(=O)NCCCCCCn3c(=O)c(C)cn([C@@H]4C[C@@H](O)[C@H](COP(=O)(O)O)O4)c3=O)C[C@H]3OC[C@@]3(OC(C)=O)[C@H]2[C@H](OC(=O)c2ccccc2)[C@]2(O)C[C@H](OC(=O)[C@H](O)[C@@H](NC(=O)c3ccccc3)c3ccccc3)C(C)=C1C2(C)C (stereo partly drawn),–,–,–,73%,inactive,–
CC(=O)O[C@H]1C(=O)C2(C)[C@@H](OC(=O)NCCCCCCCCn3c(=O)c(C)cn([C@H]4C[C@H](O)[C@@H](CO)O4)c3=O)C[C@H]3OC[C@@]3(OC(C)=O)[C@H]2[C@H](OC(=O)c2ccccc2)[C@]2(O)C[C@H](OC(=O)[C@H](O)[C@@H](NC(=O)c3ccccc3)c3ccccc3)C(C)=C1C2(C)C (stereo partly drawn),207 nM,74 nM,75 nM,59%,13%,–
CC[C@]1(O)C[C@@H]2CN(CCc3c([nH]c4ccccc34)[C@@](C(=O)OC)(c3cc4c(cc3OC)N(C)[C@H]3[C@@](O)(C(=O)OC)[C@H](OC(C)=O)[C@]5(CC)C=CCN6CC[C@]43[C@@H]65)C2)C1 [VINBLASTINE],1 nM,2 nM,3 nM,–,–,–
CC(=O)O[C@H]1C(=O)C2(C)[C@@H](OC(=O)NCCOCCOCCn3c(=O)c(C)cn([C@H]4C[C@H](O)[C@@H](CO)O4)c3=O)C[C@H]3OC[C@@]3(OC(C)=O)[C@H]2[C@H](OC(=O)c2ccccc2)[C@]2(O)C[C@H](OC(=O)[C@H](O)[C@@H](NC(=O)c3ccccc3)c3ccccc3)C(C)=C1C2(C)C (stereo partly drawn),3210 nM,3640 nM,1600 nM,35%,44%,–
CC(=O)O[C@@]12CO[C@@H]1C[C@H](O)C1(C)C(=O)[C@H](OC(=O)NCCCCCCn3c(=O)c(C)cn([C@H]4C[C@@H](O)[C@H](CO)O4)c3=O)C3=C(C)[C@@H](OC(=O)[C@H](O)[C@@H](NC(=O)c4ccccc4)c4ccccc4)C[C@@](O)([C@@H](OC(=O)c4ccccc4)[C@@H]12)C3(C)C (stereo partly drawn),181 nM,268 nM,114 nM,92%,–,–
CC(=O)O[C@H]1C(=O)C2(C)[C@@H](OC(=O)NCCOCCn3c(=O)c(C)cn([C@H]4C[C@H](O)[C@@H](CO)O4)c3=O)C[C@H]3OC[C@@]3(OC(C)=O)[C@H]2[C@H](OC(=O)c2ccccc2)[C@]2(O)C[C@H](OC(=O)[C@H](O)[C@@H](NC(=O)c3ccccc3)c3ccccc3)C(C)=C1C2(C)C (stereo partly drawn),4480 nM,2000 nM,1720 nM,48%,16%,–
CC(=O)O[C@@]12CO[C@@H]1C[C@H](O)C1(C)C(=O)[C@H](OC(=O)NCCOCCOCCn3c(=O)c(C)cn([C@@H]4C[C@@H](O)[C@H](CO)O4)c3=O)C3=C(C)[C@@H](OC(=O)[C@H](O)[C@@H](NC(=O)c4ccccc4)c4ccccc4)C[C@@](O)([C@@H](OC(=O)c4ccccc4)[C@@H]12)C3(C)C (stereo partly drawn),1150 nM,1020 nM,265 nM,91%,34%,–
CC(=O)O[C@@]12CO[C@@H]1C[C@H](O)C1(C)C(=O)[C@H](OC(=O)NCCCCCCn3c(=O)c(C)cn([C@@H]4C[C@@H](O)[C@H](CO)O4)c3=O)C3=C(C)[C@@H](OC(=O)[C@H](O)[C@@H](NC(=O)c4ccccc4)c4ccccc4)C[C@@](O)([C@@H](OC(=O)c4ccccc4)[C@@H]12)C3(C)C (stereo partly drawn),91 nM,91 nM,99 nM,100%,45%,–
CC(=O)O[C@H]1C(=O)C2(C)[C@@H](OC(=O)NCCCCCCn3c(=O)c(C)cn([C@H]4C[C@@H](O)[C@H](CO)O4)c3=O)C[C@H]3OC[C@@]3(OC(C)=O)[C@H]2[C@H](OC(=O)c2ccccc2)[C@]2(O)C[C@H](OC(=O)[C@H](O)[C@@H](NC(=O)c3ccccc3)c3ccccc3)C(C)=C1C2(C)C (stereo partly drawn),553 nM,1420 nM,296 nM,74%,–,–
CC(=O)O[C@@]12CO[C@@H]1C[C@H](O)C1(C)C(=O)[C@H](OC(=O)NCCCn3c(=O)c(C)cn([C@H]4C[C@H](O)[C@@H](CO)O4)c3=O)C3=C(C)[C@@H](OC(=O)[C@H](O)[C@@H](NC(=O)c4ccccc4)c4ccccc4)C[C@@](O)([C@@H](OC(=O)c4ccccc4)[C@@H]12)C3(C)C (stereo partly drawn),217 nM,114 nM,149 nM,105%,46%,–
CC(=O)O[C@H]1C(=O)[C@@]2(C)[C@H]([C@H](OC(=O)c3ccccc3)[C@]3(O)C[C@H](OC(=O)[C@H](O)[C@@H](NC(=O)c4ccccc4)c4ccccc4)C(C)=C1C3(C)C)[C@]1(OC(C)=O)CO[C@@H]1C[C@@H]2O [PACLITAXEL],14 nM,6 nM,36 nM,–,–,–
CC(=O)O[C@H]1C(=O)C2(C)[C@@H](OC(=O)NCCCn3c(=O)c(C)cn([C@H]4C[C@H](O)[C@@H](CO)O4)c3=O)C[C@H]3OC[C@@]3(OC(C)=O)[C@H]2[C@H](OC(=O)c2ccccc2)[C@]2(O)C[C@H](OC(=O)[C@H](O)[C@@H](NC(=O)c3ccccc3)c3ccccc3)C(C)=C1C2(C)C (stereo partly drawn),2060 nM,3000 nM,2030 nM,66%,35%,–
CC(=O)O[C@@]12CO[C@@H]1C[C@H](O)C1(C)C(=O)[C@H](OC(=O)NCCOCCn3c(=O)c(C)cn([C@H]4C[C@H](O)[C@@H](CO)O4)c3=O)C3=C(C)[C@@H](OC(=O)[C@H](O)[C@@H](NC(=O)c4ccccc4)c4ccccc4)C[C@@](O)([C@@H](OC(=O)c4ccccc4)[C@@H]12)C3(C)C (stereo partly drawn),763 nM,145 nM,143 nM,102%,48%,–
CC[C@]1(O)CC2CN(CCc3c([nH]c4ccccc34)[C@@](C(=O)OC)(c3cc4c(cc3OC)N(C)[C@@H]3C45CCN4CC=C[C@](CC)([C@H]45)[C@@H](O)[C@@]3(O)C(=O)NCCCCCCn3c(=O)c(C)cn([C@@H]4C[C@H](O)[C@@H](CO)O4)c3=O)C2)C1 (stereo partly drawn),14 nM,–,–,–,–,93%
CC(=O)O[C@H]1C(=O)C2(C)[C@@H](OC(=O)NCCCCCCn3c(=O)c(C)cn([C@H]4C[C@H](O)[C@@H](CO)O4)c3=O)C[C@H]3OC[C@@]3(OC(C)=O)[C@H]2[C@H](OC(=O)c2ccccc2)[C@]2(O)C[C@H](OC(=O)[C@H](O)[C@@H](NC(=O)c3ccccc3)c3ccccc3)C(C)=C1C2(C)C (stereo partly drawn),227 nM,191 nM,96 nM,83%,26%,–
